# Experimental data taken from PubChem BioAssay AID328 (DTP/NCI, 2004).
# “And” between values parts separate entries of the source, which are not always exact repeats. Equal values may be shown once. Inconclusive results and toxic doses are left out.
# System: BDF1 mice, P388 leukemia ip, median survival T/C
# Assay: NCI In Vivo Anticancer Drug Screen. Data for tumor model P388 Leukemia (intraperitoneal) in B6D2F1 (BDF1) mice
# Conditions: endpoint: median survival time, higher = longer survival
# In short: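 Reported as T/C, where T is the survival measurement in dosed animals and C the same measurement in vehicle controls.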
# [1] = dose: 50.0 mg/kg/injection, schedule: Q01DX009 (ip), vehicle: Klucel (hydroxypropylcellulose) (HPC)
# [2] = dose: 100.0 mg/kg/injection, schedule: Q01DX009 (ip), vehicle: Klucel (hydroxypropylcellulose) (HPC)
# [3] = dose: 200.0 mg/kg/injection, schedule: Q01DX009 (ip), vehicle: Klucel (hydroxypropylcellulose) (HPC)
# [4] = dose: 100.0 mg/kg/injection, schedule: Q04DX003 (ip), vehicle: Klucel (hydroxypropylcellulose) (HPC)
# [5] = dose: 200.0 mg/kg/injection, schedule: Q04DX003 (ip), vehicle: Klucel (hydroxypropylcellulose) (HPC)
# [6] = dose: 400.0 mg/kg/injection, schedule: Q01DX009 (ip), vehicle: Klucel (hydroxypropylcellulose) (HPC)
# [7] = dose: 400.0 mg/kg/injection, schedule: Q04DX003 (ip), vehicle: Klucel (hydroxypropylcellulose) (HPC)
# [8] = dose: 400.0 mg/kg/injection, schedule: Q04DX003 (ip), vehicle: saline with Tween-80
# [9] = dose: 25.0 mg/kg/injection, schedule: Q01DX009 (ip), vehicle: Klucel (hydroxypropylcellulose) (HPC)
# [10] = dose: 100.0 mg/kg/injection, schedule: Q04DX003 (ip), vehicle: saline with Tween-80
# [11] = dose: 200.0 mg/kg/injection, schedule: Q04DX003 (ip), vehicle: saline with Tween-80
smiles,measurement,setting,value
O=C(O)C(NC1CCCCC1)c1ccccc1 (stereo unspecified),T/C,"dose: 50.0 mg/kg/injection, schedule: Q01DX009 (ip), vehicle: saline",120 % of control
same,T/C,"dose: 100.0 mg/kg/injection, schedule: Q01DX009 (ip), vehicle: saline",105 % of control
same,T/C,"dose: 200.0 mg/kg/injection, schedule: Q01DX009 (ip), vehicle: saline",100 % of control
C(=Nc1ccc2c(c1)Cc1ccccc1-2)c1ccccc1,T/C,[1],90 % of control
same,T/C,[2],109 % of control
same,T/C,[3],100 % of control
COC12CC3(C)C(C4=CC(=O)OC4)CCC3(O)C3CCC4=CC(=O)CCC4(CO1)C32 (stereo unspecified),T/C,"dose: 56.0 mg/kg/injection, schedule: Q01DX010 (ip), vehicle: carboxymethylcellulose (CMC)",95 % of control
same,T/C,"dose: 112.5 mg/kg/injection, schedule: Q01DX010 (ip), vehicle: carboxymethylcellulose (CMC)",100 % of control
same,T/C,"dose: 225.0 mg/kg/injection, schedule: Q01DX010 (ip), vehicle: carboxymethylcellulose (CMC)",90 % of control
CCCCCCCCCCCCCCCCCCOC(=O)Cc1ccc(N(CCCl)CCCl)cc1,T/C,"dose: 50.0 mg/kg/injection, schedule: Q04DX002 (ip), vehicle: Klucel (hydroxypropylcellulose) (HPC)",123 % of control
same,T/C,"dose: 66.0 mg/kg/injection, schedule: Q01DX007 (ip), vehicle: Klucel (hydroxypropylcellulose) (HPC)",153 % of control
same,T/C,"dose: 100.0 mg/kg/injection, schedule: Q01DX007 (ip), vehicle: Klucel (hydroxypropylcellulose) (HPC)",165 % of control
same,T/C,[2],150 % of control
same,T/C,"dose: 100.0 mg/kg/injection, schedule: Q04DX002 (ip), vehicle: Klucel (hydroxypropylcellulose) (HPC)",104 % of control
same,T/C,[4],113 % of control
same,T/C,"dose: 150.0 mg/kg/injection, schedule: Q01DX007 (ip), vehicle: Klucel (hydroxypropylcellulose) (HPC)",173 % of control
same,T/C,"dose: 180.0 mg/kg/injection, schedule: Q04DX003 (ip), vehicle: saline with Tween-80",100 % of control
same,T/C,[5],118 % of control
same,T/C,[6],123 % of control
same,T/C,"dose: 400.0 mg/kg/injection, schedule: Q04DX002 (ip), vehicle: Klucel (hydroxypropylcellulose) (HPC)",180 % of control
same,T/C,[7],250 % of control and 159 % of control
same,T/C,[8],166 % of control
same,T/C,"dose: 600.0 mg/kg/injection, schedule: Q04DX003 (ip), vehicle: Klucel (hydroxypropylcellulose) (HPC)",208 % of control
same,T/C,"dose: 600.0 mg/kg/injection, schedule: Q04DX003 (ip), vehicle: saline with Tween-80",150 % of control
O=P(N1CC1)(N1CC1)N1CC2CCC(CC2)C1,T/C,"dose: 25.0 mg/kg/injection, schedule: Q04DX003 (ip), vehicle: saline",163 % of control
same,T/C,"dose: 37.5 mg/kg/injection, schedule: Q04DX003 (ip), vehicle: saline",236 % of control
COc1cc2c(ccc3c4cc(OC)c(OC)cc4c[n+](C)c23)cc1O,T/C,"dose: 12.5 mg/kg/injection, schedule: Q01DX009 (ip), vehicle: Klucel (hydroxypropylcellulose) (HPC)",165 % of control
same,T/C,[9],173 % of control
same,T/C,"dose: 25.0 mg/kg/injection, schedule: Q01DX010 (ip), vehicle: saline",190 % of control
same,T/C,"dose: 40.0 mg/kg/injection, schedule: Q01DX009 (ip), vehicle: saline",190 % of control
same,T/C,"dose: 40.0 mg/kg/injection, schedule: Q04DX003 (ip), vehicle: saline",190 % of control
same,T/C,[1],219 % of control
same,T/C,"dose: 50.0 mg/kg/injection, schedule: Q01DX010 (ip), vehicle: saline",210 % of control
same,T/C,"dose: 80.0 mg/kg/injection, schedule: Q01DX009 (ip), vehicle: saline",210 % of control
same,T/C,"dose: 80.0 mg/kg/injection, schedule: Q04DX003 (ip), vehicle: saline",180 % of control
same,T/C,[2],230 % of control
same,T/C,"dose: 100.0 mg/kg/injection, schedule: Q01DX010 (ip), vehicle: saline",265 % of control
same,T/C,"dose: 160.0 mg/kg/injection, schedule: Q01DX009 (ip), vehicle: saline",270 % of control
same,T/C,"dose: 160.0 mg/kg/injection, schedule: Q04DX003 (ip), vehicle: saline",215 % of control
same,T/C,"dose: 320.0 mg/kg/injection, schedule: Q01DX009 (ip), vehicle: saline",205 % of control
same,T/C,"dose: 320.0 mg/kg/injection, schedule: Q04DX003 (ip), vehicle: saline",270 % of control
C[C@@H]1C[C@@]2(C)[C@@H](CC[C@@H]3[C@@H]2CC[C@]2(C)[C@@H](OC4CCCCO4)CC[C@@H]32)CC1=O (stereo partly specified),T/C,[9],88 % of control
same,T/C,[1],92 % of control
same,T/C,[2],88 % of control and 100 % of control
same,T/C,[4],86 % of control and 91 % of control
same,T/C,[3],87 % of control and 100 % of control
same,T/C,[5],87 % of control and 95 % of control
same,T/C,[6],105 % of control
same,T/C,[7],90 % of control and 91 % of control
CC12CCC(=O)C=C1CCC1C2CCC2(C)C(OP(=O)(N3CC3)N3CC3)CCC12 (stereo unspecified),T/C,[10],110 % of control
Cc1nc2c(NC(=O)C(F)(F)F)nn(C)c2nc1C,T/C,[10],100 % of control
same,T/C,[11],104 % of control
same,T/C,[8],100 % of control
CS(=O)(=O)OCCCCOS(C)(=O)=O,T/C,"dose: 6.25 mg/kg/injection, schedule: Q01DX010 (ip), vehicle: saline",100 % of control and 119 % of control
same,T/C,"dose: 12.5 mg/kg/injection, schedule: Q01DX009 (ip), vehicle: saline with Tween-80",113 % of control
same,T/C,"dose: 12.5 mg/kg/injection, schedule: Q01DX010 (ip), vehicle: saline",122 % of control
same,T/C,"dose: 20.0 mg/kg/injection, schedule: Q01DX010 (ip), vehicle: other",120 % of control
same,T/C,"dose: 25.0 mg/kg/injection, schedule: Q01DX009 (ip), vehicle: saline with Tween-80",104 % of control
same,T/C,"dose: 40.0 mg/kg/injection, schedule: Q01DX010 (ip), vehicle: other",120 % of control
same,T/C,"dose: 50.0 mg/kg/injection, schedule: Q01DX009 (ip), vehicle: saline with Tween-80",104 % of control
same,T/C,"dose: 60.0 mg/kg/injection, schedule: Q01DX010 (ip), vehicle: other",120 % of control
CCCCCCCCCCNC1CC(OC2CC(O)(C(C)=O)Cc3c(O)c4c(c(O)c32)C(=O)c2c(OC)cccc2C4=O)OC(C)C1O (stereo unspecified),T/C,"dose: 3.13 mg/kg/injection, schedule: Q01DX009 (ip), vehicle: water",108 % of control
same,T/C,"dose: 6.25 mg/kg/injection, schedule: Q01DX009 (ip), vehicle: water",103 % of control
Cc1ccc(NCCN(C)C)c2c(=O)c3ccccc3sc12,T/C,"dose: 6.25 mg/kg/injection, schedule: Q01DX009 (ip), vehicle: saline",96 % of control
same,T/C,"dose: 12.0 mg/kg/injection, schedule: Q04DX003 (ip), vehicle: saline",105 % of control
same,T/C,"dose: 12.5 mg/kg/injection, schedule: Q01DX009 (ip), vehicle: saline",103 % of control
same,T/C,"dose: 19.0 mg/kg/injection, schedule: Q04DX003 (ip), vehicle: saline",120 % of control
same,T/C,"dose: 25.0 mg/kg/injection, schedule: Q01DX009 (ip), vehicle: saline",107 % of control
same,T/C,"dose: 100.0 mg/kg/injection, schedule: Q04DX003 (ip), vehicle: alcohol",155 % of control
same,T/C,"dose: 100.0 mg/kg/injection, schedule: Q04DX003 (ip), vehicle: saline",168 % of control and 170 % of control
same,T/C,"dose: 150.0 mg/kg/injection, schedule: Q04DX003 (ip), vehicle: saline",205 % of control
same,T/C,"dose: 200.0 mg/kg/injection, schedule: Q04DX003 (ip), vehicle: alcohol",100 % of control
COC(=O)C(CC(O)c1ccccc1)N1CCOCC1 (stereo unspecified),T/C,"dose: 100.0 mg/kg/injection, schedule: Q01DX001 (ip), vehicle: saline with Tween-80",100 % of control
same,T/C,"dose: 200.0 mg/kg/injection, schedule: Q01DX001 (ip), vehicle: saline with Tween-80",100 % of control
same,T/C,"dose: 400.0 mg/kg/injection, schedule: Q01DX001 (ip), vehicle: saline with Tween-80",100 % of control
N#CC(O)Cc1ccccc1 (stereo unspecified),T/C,"dose: 2.5 mg/kg/injection, schedule: Q01DX009 (ip), vehicle: other",100 % of control
same,T/C,"dose: 5.0 mg/kg/injection, schedule: Q01DX009 (ip), vehicle: other",100 % of control
same,T/C,"dose: 10.0 mg/kg/injection, schedule: Q01DX009 (ip), vehicle: other",100 % of control
CCC1(C)N=C(C)C(C)S1 (stereo unspecified),T/C,[10],100 % of control
same,T/C,[11],100 % of control
same,T/C,[8],109 % of control
